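At the GI50, growth is halved. TGI is the concentration that stops growth completely.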
Columns and labels:
Assay in all cases: inhibition of tumour cell growth, NCI panel, 384-well format
[1] = system: SNB-19 CNS
[2] = system: RPMI-8226 leukemia
[3] = system: HCT-15 colon
[4] = system: TK-10 renal
[5] = system: NCI-H522 lung
[6] = system: 786-0 renal
[7] = system: OVCAR-3 ovarian
[8] = system: SF-268 CNS
[9] = system: MDA-MB-468 breast
[10] = system: HOP-62 NSCLC
[11] = system: SK-MEL-5 melanoma
[12] = system: T-47D breast
[13] = system: SR leukemia
[14] = system: UACC-257 melanoma
[15] = system: MALME-3M melanoma
[16] = system: LOX IMVI melanoma
[17] = system: A498 renal
[18] = system: K-562 leukemia
[19] = system: BT-549 breast
[20] = system: M14 melanoma
[21] = system: MOLT-4 leukemia
[22] = system: SK-OV-3 ovarian
[23] = system: SN12C renal
[24] = system: PC-3 prostate
[25] = system: ACHN renal
[26] = system: RXF 393 renal
[27] = system: CAKI-1 renal
[28] = system: NCI-H322M lung
[29] = system: SF-295 CNS

In the case of C[C@H](Nc1ncnc2nc[nH]c12)c1cc2ccc(F)cc2nc1-c1ccccn1, the GI50 [1] is reported as > 100 µM, the TGI [1] is reported as > 100 µM and the GI50 [2] is reported as 22.4 µM. The TGI [2] was > 100 µM, the GI50 [3] was > 100 µM and the TGI [3] was > 100 µM. The GI50 [4] was > 100 µM, the TGI [4] was > 100 µM and the GI50 [5] was 67.4 µM. The TGI [5] was > 100 µM, the GI50 [6] was 30.4 µM and the TGI [6] was > 100 µM. For the same molecule, the GI50 [7] was 34.7 µM, the TGI [7] was > 100 µM and the GI50 [8] was > 100 µM. For the same molecule, the TGI [8] was > 100 µM, the GI50 [9] was 59.2 µM and the TGI [9] was > 100 µM. For the same molecule, the GI50 [10] was > 100 µM, the TGI [10] was > 100 µM and the GI50 [11] was > 100 µM. The TGI [11] was > 100 µM, the GI50 [12] was 31.2 µM and the TGI [12] was > 100 µM. For the same molecule, the GI50 [13] was 1.06 µM, the TGI [13] was 8.99 µM and the GI50 [14] was > 100 µM. The TGI [14] was > 100 µM, the GI50 [15] was 23.6 µM and the TGI [15] was > 100 µM. For the same molecule, the GI50 [16] was > 100 µM, the TGI [16] was > 100 µM and the GI50 [17] was 17.5 µM. The TGI [17] was > 100 µM, the GI50 [18] was > 100 µM and the TGI [18] was > 100 µM. The GI50 [19] was 21.1 µM, the TGI [19] was > 100 µM and the GI50 [20] was > 100 µM. For the same molecule, the TGI [20] was > 100 µM, the GI50 [21] was 23.3 µM and the TGI [21] was > 100 µM. For the same molecule, the GI50 [22] was 64.3 µM, the TGI [22] was > 100 µM and the GI50 [23] was 12.4 µM. The TGI [23] was > 100 µM, the GI50 [24] was 18.2 µM and the TGI [24] was > 100 µM. For the same molecule, the GI50 [25] was 96.1 µM, the TGI [25] was > 100 µM and the GI50 [26] was 12.6 µM. The TGI [26] was > 100 µM, the GI50 [27] was 8.35 µM and the TGI [27] was 54.1 µM. For the same molecule, the GI50 [28] was > 100 µM, the TGI [28] was > 100 µM and the GI50 [29] was 29.4 µM. For the same molecule, the TGI [29] was > 100 µM.

Source: PubChem BioAssay (NCI)
